As usually defined, the IC50 is the point on the concentration scale where inhibition reaches its midpoint.

From patent US11945822B2, “Pyrazolo-triazine and/or pyrazolo-pxrimidine derivatives as selective inhibitor of cyclin dependent kinase” (QURIENT CO., LTD., priority 2018, dated 2024) come the findings set out here.

Each structure is given as a SMILES string.

The test system of one assay is MOLT-4. Briefly: Cellular MOLT-4 viability assay (CellTiter-Glo, 72 hours). The assay is classed as cell-based. The conditions noted are these: Homo sapiens, MOLT4 viability assay. As to the method:
(§1) All cell lines were routinely tested for mycoplasma.
(§2) The effect of the CDK7 inhibitor to inhibit the growth of target cancer cells was evaluated through the 72 hours time period of viability assay. Briefly, the candidate cell line ware plated in 96 well plate at the following density of cells respectively. […] DMSO solvent without compound served as a control and final DMSO concentration less than 0.1%. After 72 hours of incubation at 37° C., 5% CO2 incubator, cells were analyzed for the viability using the CellTiter-Glo Luminescent Cell Viability Assay (Promega, Cat #G7570). All viability assays were performed in duplicate and Luminescence was read using an Envision (Perkin Elmer, USA). Data was analyzed using XLfit software.
On the technique in general: Cellular ATP, detected with luciferase, serves as a proxy for viable cell number.

For another assay, the target named is T1, CDK7/Cyclin H/MNAT1 (Homo sapiens, UniProt P50613).
T1 construct: purchased Invitrogen PR6749B
The experiment in a line: Enzymatic assay for CDK7 (FRET based LANCE Ultra kinase assay). The assay is classed as biochemical. The conditions noted are these: for IC50: read-out: CDK7 enzymatic activity (IC50 range). A digest of the protocol:
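Inhibition was measured at Km ATP by time-resolved FRET between a Eu anti-phospho antibody and a phosphorylated ULight peptide. The enzyme was the purified CDK7/cyclin complex, and data were curve-fitted.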
(In general: Time-resolved FRET reads energy transfer from a long-lived donor to a nearby acceptor.)

The target in a further assay is T2, CDK5/p25 (Homo sapiens, UniProt Q00535).
T2 construct: purchased Invitrogen PR8543B
Briefly: Enzymatic assay for CDK5 (FRET based LANCE Ultra kinase assay). It counts as biochemical. The conditions noted are these: read-out: CDK5 enzymatic activity (IC50 range). The essentials:
(§3)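 TR-FRET (LANCE Ultra) kinase assay at ATP Km, ULight-MBP peptide substrate (68 nM), 8-dose 4-fold compound series in DMSO. Enzymes: […]; 60 min at 23° C., stopped with EDTA plus Eu-anti-phospho-MBP antibody, read 665/615 nm after 60 min.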

The subject of the next assay is H460. The experiment in a line: Cellular H460 viability assay (CellTiter-Glo, 72 hours). The assay is classed as cell-based. The conditions noted are these: Homo sapiens, NCI-H460. The essentials: (§4)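 CellTiter-Glo luminescence read in duplicate after 72 h compound exposure (37 °C, 5% CO2); DMSO-only control, final DMSO under 0.1%.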
The next assay addresses T3, CDK1/Cyclin B (Homo sapiens, UniProt P06493).
T3 construct: purchased Invitrogen PR4768C
Briefly: Enzymatic assay for CDK1 (FRET based LANCE Ultra kinase assay). The conditions noted are these: read-out: CDK1 enzymatic activity (IC50 range). It counts as biochemical. A digest of the protocol: as §3

The next assay concerns the target T4, CDK2/Cyclin A (Homo sapiens, UniProt P24941).
T4 construct: purchased Invitrogen PV6290
The experiment in a line: Enzymatic assay for CDK2 (FRET based LANCE Ultra kinase assay). It counts as biochemical. The conditions noted are these: read-out: CDK2 enzymatic activity (IC50 range). A digest of the protocol: as §3

The next assay has as its system HCT116. Briefly: Cellular HCT116 viability assay (CellTiter-Glo, 72 hours). The assay is classed as cell-based. The conditions noted are these: Homo sapiens, HCT-116. The essentials:
as §4

The next assay relates to MV4-11. The experiment in a line: Cellular MV4-11 viability assay (CellTiter-Glo, 72 hours). It counts as cell-based. The note with it: Homo sapiens. The essentials: as §4
In another assay the test system is RPMI-8226. Briefly: Cellular RPMI-8226 viability assay (CellTiter-Glo, 72 hours). It counts as cell-based. The note with it: Homo sapiens. As to the method:
as §1, §2

T1 sequence (P50613 whole entry): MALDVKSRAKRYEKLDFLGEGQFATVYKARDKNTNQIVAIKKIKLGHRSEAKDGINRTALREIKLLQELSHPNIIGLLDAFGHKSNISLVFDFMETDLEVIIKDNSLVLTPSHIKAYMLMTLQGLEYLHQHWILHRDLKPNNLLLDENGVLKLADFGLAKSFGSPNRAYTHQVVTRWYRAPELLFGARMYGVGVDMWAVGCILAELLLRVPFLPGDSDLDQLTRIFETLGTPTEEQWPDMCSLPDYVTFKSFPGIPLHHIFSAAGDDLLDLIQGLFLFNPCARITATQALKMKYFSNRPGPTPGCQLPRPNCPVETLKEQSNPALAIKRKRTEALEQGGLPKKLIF
T1 sequence (P51946 whole entry partner): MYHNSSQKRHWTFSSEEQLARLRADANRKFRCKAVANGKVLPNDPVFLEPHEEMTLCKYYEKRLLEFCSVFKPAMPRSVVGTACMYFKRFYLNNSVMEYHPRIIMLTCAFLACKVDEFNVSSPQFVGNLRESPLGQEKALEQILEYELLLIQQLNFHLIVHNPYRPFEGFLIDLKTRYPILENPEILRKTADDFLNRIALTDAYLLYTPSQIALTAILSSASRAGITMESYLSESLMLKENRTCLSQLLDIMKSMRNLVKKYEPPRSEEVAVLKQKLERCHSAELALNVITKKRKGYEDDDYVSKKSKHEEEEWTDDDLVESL
T1 sequence (P51948 whole entry partner): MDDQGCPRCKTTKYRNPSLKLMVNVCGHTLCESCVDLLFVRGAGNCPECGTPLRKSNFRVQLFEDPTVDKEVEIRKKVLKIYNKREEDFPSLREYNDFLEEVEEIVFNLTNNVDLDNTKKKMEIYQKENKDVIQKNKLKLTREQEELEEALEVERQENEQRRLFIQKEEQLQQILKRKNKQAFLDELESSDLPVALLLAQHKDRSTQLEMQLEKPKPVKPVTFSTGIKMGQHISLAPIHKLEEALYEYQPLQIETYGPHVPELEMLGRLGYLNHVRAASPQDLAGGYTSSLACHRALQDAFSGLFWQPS
T3 sequence (P06493 whole entry): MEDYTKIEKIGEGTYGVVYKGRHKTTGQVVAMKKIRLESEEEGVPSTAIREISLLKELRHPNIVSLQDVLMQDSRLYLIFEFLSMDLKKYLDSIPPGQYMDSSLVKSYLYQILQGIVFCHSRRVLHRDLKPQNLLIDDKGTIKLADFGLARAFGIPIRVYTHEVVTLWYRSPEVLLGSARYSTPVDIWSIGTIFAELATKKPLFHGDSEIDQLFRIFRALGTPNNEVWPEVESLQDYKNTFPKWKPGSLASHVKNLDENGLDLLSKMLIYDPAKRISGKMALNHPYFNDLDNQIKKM
T3 sequence (P14635 whole entry partner): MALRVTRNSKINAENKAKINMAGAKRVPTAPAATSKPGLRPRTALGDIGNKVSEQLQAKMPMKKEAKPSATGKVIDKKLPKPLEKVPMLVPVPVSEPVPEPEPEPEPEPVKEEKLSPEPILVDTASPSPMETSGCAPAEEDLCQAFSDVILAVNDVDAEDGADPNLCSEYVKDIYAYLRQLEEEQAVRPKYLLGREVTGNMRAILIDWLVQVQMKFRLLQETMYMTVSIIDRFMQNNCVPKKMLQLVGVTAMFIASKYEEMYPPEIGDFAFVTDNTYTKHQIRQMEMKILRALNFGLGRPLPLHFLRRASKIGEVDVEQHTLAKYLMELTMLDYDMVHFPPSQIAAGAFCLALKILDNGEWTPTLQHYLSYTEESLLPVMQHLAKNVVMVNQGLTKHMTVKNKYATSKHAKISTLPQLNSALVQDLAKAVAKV
T2 sequence (Q00535 whole entry): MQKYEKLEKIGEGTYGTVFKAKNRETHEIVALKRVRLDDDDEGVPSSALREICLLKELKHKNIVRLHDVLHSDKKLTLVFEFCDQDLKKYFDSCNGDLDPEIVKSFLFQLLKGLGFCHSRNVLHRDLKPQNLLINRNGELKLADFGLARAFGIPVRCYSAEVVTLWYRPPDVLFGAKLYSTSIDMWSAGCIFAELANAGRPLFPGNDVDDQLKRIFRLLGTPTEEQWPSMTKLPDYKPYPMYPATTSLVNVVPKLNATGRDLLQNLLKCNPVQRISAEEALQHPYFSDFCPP
T2 sequence (Q15078 99-307 partner limits assumed): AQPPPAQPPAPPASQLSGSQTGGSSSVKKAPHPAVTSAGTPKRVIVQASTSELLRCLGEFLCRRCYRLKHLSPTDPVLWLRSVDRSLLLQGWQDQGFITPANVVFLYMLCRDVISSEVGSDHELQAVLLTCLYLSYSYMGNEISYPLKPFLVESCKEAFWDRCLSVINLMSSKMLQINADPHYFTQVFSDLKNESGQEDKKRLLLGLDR

Take `CCC(O)c1cnn2c(NCc3ccccc3-n3cccn3)nc(N3CCC(N)CC3)nc12` (racemic) [Compound 52]: the IC50 was 1 to 10 µM in the assay on MOLT-4; less than 0.1 µM on CDK7/Cyclin H/MNAT1; 0.1 to 1 µM on CDK5/p25; 1 to 10 µM with H460; greater than 1 µM at CDK1/Cyclin B; 0.1 to 1 µM on CDK2/Cyclin A. This compound also registered a half-inhibitory concentration (IC50) with HCT116 greater than 10 µM. In addition, the “CDK1/CDK7: Selectivity of CDK7 inhibition over CDK1 inhibition” value on CDK7/Cyclin H/MNAT1 was “C (C=less than 20 fold)”. In addition, on CDK7/Cyclin H/MNAT1, the “CDK2/CDK7: Selectivity of CDK7 inhibition over CDK2 inhibition” value is “C (C=less than 20 fold)”. Besides, the “CDK5/CDK7: Selectivity of CDK7 inhibition over CDK5 inhibition” value at CDK7/Cyclin H/MNAT1 is “C (C=less than 20 fold)”.

With `CC(C)(C)c1cnn2c(NCc3ccccc3-n3cccn3)nc(N3CCC(N)CC3)nc12` [Compound 24], the concentration for half-maximal inhibition (IC50) was 1 to 10 µM with MOLT-4; less than 0.1 µM on CDK7/Cyclin H/MNAT1; less than 0.1 µM at CDK5/p25; less than 1 µM in the assay on H460; 0.1 to 1 µM at CDK1/Cyclin B; 0.1 to 1 µM at CDK2/Cyclin A. The compound also returned an IC50 with HCT116 of less than 1 µM. On CDK7/Cyclin H/MNAT1, the “CDK1/CDK7: Selectivity of CDK7 inhibition over CDK1 inhibition” value was “B (B=less than 200 fold, but greater than 20 fold)”. On CDK7/Cyclin H/MNAT1, the “CDK2/CDK7: Selectivity of CDK7 inhibition over CDK2 inhibition” value is on record as “B (B=less than 200 fold, but greater than 20 fold)”. Besides, the “CDK5/CDK7: Selectivity of CDK7 inhibition over CDK5 inhibition” value on CDK7/Cyclin H/MNAT1 is “B (B=less than 200 fold, but greater than 20 fold)”.

On to `CC(C)c1cnn2c(NCc3ccccc3-n3cccn3)nc(NC3CCNCC3)nc12` [Compound 40], for which the IC50 in the assay on MV4-11 was less than 1 µM; with MOLT-4, greater than 10 µM; at CDK7/Cyclin H/MNAT1 it was less than 0.1 µM; on CDK5/p25, 0.1 to 1 µM; in the assay with H460 it was less than 1 µM; on CDK1/Cyclin B, greater than 1 µM. In addition, on CDK2/Cyclin A, the concentration for half-maximal inhibition (IC50) lay in the range of 0.1 to 1 µM. Further, the “CDK1/CDK7: Selectivity of CDK7 inhibition over CDK1 inhibition” value at CDK7/Cyclin H/MNAT1 is “A (A=greater than 200 fold)”. Besides, the “CDK2/CDK7: Selectivity of CDK7 inhibition over CDK2 inhibition” value at CDK7/Cyclin H/MNAT1 is reported as “B (B=less than 200 fold, but greater than 20 fold)”. Besides, the “CDK5/CDK7: Selectivity of CDK7 inhibition over CDK5 inhibition” value at CDK7/Cyclin H/MNAT1 is listed as “C (C=less than 20 fold)”.

As for `CNC(=O)c1ccccc1CNc1nc(N2CCC(N)CC2)nc2c(C(C)C)cnn12` [Compound 19], the “CDK1/CDK7: Selectivity of CDK7 inhibition over CDK1 inhibition” value at CDK7/Cyclin H/MNAT1 is reported as “A (A=greater than 200 fold)”. Besides, the “CDK2/CDK7: Selectivity of CDK7 inhibition over CDK2 inhibition” value on CDK7/Cyclin H/MNAT1 was “B (B=less than 200 fold, but greater than 20 fold)”. On CDK7/Cyclin H/MNAT1, the “CDK5/CDK7: Selectivity of CDK7 inhibition over CDK5 inhibition” value is listed as “B (B=less than 200 fold, but greater than 20 fold)”. Moreover, the IC50 is less than 0.1 µM on CDK7/Cyclin H/MNAT1; 0.1 to 1 µM at CDK5/p25; less than 1 µM in the assay with RPMI-8226; greater than 1 µM on CDK1/Cyclin B; 0.1 to 1 µM on CDK2/Cyclin A.

Consider `CC(C)c1cnn2c(NCc3ccccc3-c3cc4ccccc4[nH]3)nc(N3CCCC(N)C3)nc12` (racemic) [Compound 125], for which the “CDK1/CDK7: Selectivity of CDK7 inhibition over CDK1 inhibition” value at CDK7/Cyclin H/MNAT1 is recorded as “A (A=greater than 200 fold)”. Besides, the “CDK2/CDK7: Selectivity of CDK7 inhibition over CDK2 inhibition” value at CDK7/Cyclin H/MNAT1 is “B (B=less than 200 fold, but greater than 20 fold)”. Further, at CDK7/Cyclin H/MNAT1, the “CDK5/CDK7: Selectivity of CDK7 inhibition over CDK5 inhibition” value is “B (B=less than 200 fold, but greater than 20 fold)”. The IC50 is less than 0.1 µM at CDK7/Cyclin H/MNAT1; greater than 1 µM at CDK5/p25; 1 to 10 µM with RPMI-8226; greater than 1 µM on CDK1/Cyclin B; greater than 1 µM at CDK2/Cyclin A.

Consider `CC(C)c1cnn2c(NCc3ccccc3-c3cc4ccccc4[nH]3)nc(N3CCC[C@@H](N)C3)nc12` [Compound 131], for which the “CDK1/CDK7: Selectivity of CDK7 inhibition over CDK1 inhibition” value on CDK7/Cyclin H/MNAT1 is on record as “B (B=less than 200 fold, but greater than 20 fold)”. The “CDK2/CDK7: Selectivity of CDK7 inhibition over CDK2 inhibition” value at CDK7/Cyclin H/MNAT1 is given as “B (B=less than 200 fold, but greater than 20 fold)”. Besides, at CDK7/Cyclin H/MNAT1, the “CDK5/CDK7: Selectivity of CDK7 inhibition over CDK5 inhibition” value is “B (B=less than 200 fold, but greater than 20 fold)”. In addition, the 50% inhibitory concentration (IC50) at CDK7/Cyclin H/MNAT1 is less than 0.1 µM; on CDK5/p25 it was greater than 1 µM; in the assay on RPMI-8226, 1 to 10 µM; on CDK1/Cyclin B, greater than 1 µM; at CDK2/Cyclin A, greater than 1 µM.

On to `CC(C)c1cnn2c(NCc3ccccc3-n3cccn3)nc(-c3ccc(C(=O)N4CCC(N)CC4)cc3)nc12` [Compound 172], for which the half-inhibitory concentration (IC50) was 1 to 10 µM with MOLT-4; less than 0.1 µM at CDK7/Cyclin H/MNAT1; 0.1 to 1 µM on CDK5/p25; 1 to 10 µM with H460; greater than 1 µM on CDK1/Cyclin B; 0.1 to 1 µM at CDK2/Cyclin A. This compound came in with an IC50 in the assay with HCT116 of 1 to 10 µM. Besides, the “CDK1/CDK7: Selectivity of CDK7 inhibition over CDK1 inhibition” value on CDK7/Cyclin H/MNAT1 is listed as “A (A=greater than 200 fold)”. The “CDK2/CDK7: Selectivity of CDK7 inhibition over CDK2 inhibition” value at CDK7/Cyclin H/MNAT1 is “B (B=less than 200 fold, but greater than 20 fold)”. The “CDK5/CDK7: Selectivity of CDK7 inhibition over CDK5 inhibition” value on CDK7/Cyclin H/MNAT1 is “B (B=less than 200 fold, but greater than 20 fold)”.

In the case of `CC(C)c1cnn2c(NCc3ccccc3NC3CCN(C)CC3)nc(N3CCC(N)CC3)nc12` [Compound 49], the IC50 with MOLT-4, with H460 and with HCT116 was 1 to 10 µM throughout.
